Measurements: BindingDB's records for doi:10.1016/j.bmcl.2005.02.006 (Wyeth Research, 2005)

Assays:
[1] = In vitro effective concentration against beta amyloid protein 42 in ELISA
[2] = In vitro effective concentration against beta amyloid protein 40 in ELISA
[3] = In vitro inhibition of amyloid precursor protein 695 activity in CHO cells expressing human APP

**Q.** With `CCOC(=O)N1CCC(c2ccccc2C)(S(=O)(=O)c2ccc(Cl)cc2)CC1` [4-(4-Chloro-benzenesulfonyl)-4-o-tolyl-piperidine-1-carboxylic acid ethyl ester] as the compound, how does the EC50 [1] read?
**A.** Its EC50 is 3.7 µM.

**Q.** What about the EC50 [2] of the same compound?
**A.** The EC50 was 2.7 µM.

**Q.** With `CCOC(=O)N1CCC(c2ccccc2OC)(S(=O)(=O)c2ccc(OC)cc2)CC1` [4-(4-Methoxy-benzenesulfonyl)-4-(2-methoxy-phenyl)-piperidine-1-carboxylic acid ethyl ester] as the compound, how does the EC50 [2] read?
**A.** Its EC50 is 50.6 µM.

**Q.** Which EC50 [2] does the source give for `CCOC(=O)N1CCC(c2ccccc2C)(S(=O)(=O)c2ccc(OC)cc2)CC1` [4-(4-Methoxy-benzenesulfonyl)-4-o-tolyl-piperidine-1-carboxylic acid ethyl ester] here?
**A.** Its EC50 is 24.5 µM.

**Q.** Which EC50 [2] does the source give for `CCOC(=O)N1CCC(c2ccccc2)(S(=O)(=O)c2ccc(OC)cc2)CC1` [4-(4-Methoxy-benzenesulfonyl)-4-phenyl-piperidine-1-carboxylic acid ethyl ester] here?
**A.** Its EC50 is 97 µM.

**Q.** Which EC50 [2] does the source give for `CCOC(=O)N1CCC(c2ccccc2OC)(S(=O)(=O)c2ccccc2)CC1` [4-Benzenesulfonyl-4-(2-methoxy-phenyl)-piperidine-1-carboxylic acid ethyl ester] here?
**A.** The EC50 was 62.7 µM.

**Q.** With `CCOC(=O)N1CCC(c2ccccc2C)(S(=O)(=O)c2ccccc2)CC1` [4-Benzenesulfonyl-4-o-tolyl-piperidine-1-carboxylic acid ethyl ester] as the compound, how does the EC50 [2] read?
**A.** Its EC50 is 48.6 µM.

**Q.** Which EC50 [2] does the source give for `CCCNC(=O)OC[C@@H](C)N(c1cc(Cl)ccc1CO)S(=O)(=O)c1ccc(Cl)cc1` [BMCL18464 Compound 14] here?
**A.** Its EC50 is 0.1 µM.

**Q.** With `CCOC(=O)N1CCC(c2ccccc2OC)(S(=O)(=O)c2ccc(Cl)cc2)CC1` [ethyl 4-(4-chlorophenylsulfonyl)-4-(2-methoxyphenyl)piperidine-1-carboxylate] as the compound, how does the EC50 [1] read?
**A.** The EC50 was 5 µM.

**Q.** And the EC50 [3]?
**A.** The EC50 was 1.03 µM.

**Q.** And the EC50 [2]?
**A.** The EC50 was 3.5 µM.

**Q.** Which results are given for `CCOC(=O)N1CCC(c2ccccc2)(S(=O)(=O)c2ccc(Cl)cc2)CC1` [ethyl 4-[(4-chlorobenzene)sulfonyl]-4-phenylpiperidine-1-carboxylate]?
**A.** EC50 [1]: 20.9 µM; EC50 [2]: 12.2 µM
